From patent publication US20050130197A1, “Homogeneous fluorescence polarization assay for high throughput screening” (priority 2003, published 2005)
Like-named read-outs stand apart in the source and are kept apart here. Where a SMILES comes first, the peptide text is derived from it. Where no end group is shown, it is not given here. [ ]: non-standard residue; d: D form. NMeF = CN[C@@H](Cc1ccccc1)C(=O)O

Assays:
human NPFF2 receptor [1] = molecular target: T1, human NPFF2 receptor (Homo sapiens, UniProt Q9Y5X5); experiment: Fluorescence polarization (FP) competition binding assay, TAMRA-NPFF tracer, 0.1% Pluronic F-127; details: for Ki: FP competition binding, TAMRA-NPFF tracer, human NPFF2 receptor membrane preparation, means ± S.E. of three separate experiments; for Ki for inhibiting TAMRA-NPFF binding (in words): FP displacement curves; for affinity to the TAMRA-NPFF binding site / binding to NPFF2 receptor: 10 μM, FP assay
T1 construct: purchased Euroscreen s.a; (Brussels, Belgium)
T1 sequence (Q9Y5X5 whole entry): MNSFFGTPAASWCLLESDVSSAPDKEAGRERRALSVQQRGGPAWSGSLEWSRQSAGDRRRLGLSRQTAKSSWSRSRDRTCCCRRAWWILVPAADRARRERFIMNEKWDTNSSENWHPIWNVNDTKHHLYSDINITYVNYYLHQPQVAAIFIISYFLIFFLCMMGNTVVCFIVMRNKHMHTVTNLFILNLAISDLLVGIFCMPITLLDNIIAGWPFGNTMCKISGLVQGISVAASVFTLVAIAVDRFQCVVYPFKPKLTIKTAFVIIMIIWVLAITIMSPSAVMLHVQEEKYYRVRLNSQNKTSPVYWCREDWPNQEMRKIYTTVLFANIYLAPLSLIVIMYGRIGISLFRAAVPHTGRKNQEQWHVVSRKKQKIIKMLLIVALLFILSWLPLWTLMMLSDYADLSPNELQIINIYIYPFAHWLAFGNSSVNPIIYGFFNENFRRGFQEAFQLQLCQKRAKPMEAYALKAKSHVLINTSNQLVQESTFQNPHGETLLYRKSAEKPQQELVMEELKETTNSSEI
Method: Human NPFF2 receptor membrane homogenates were diluted in a binding buffer (50 mM HEPES buffer, pH 7.4 and various concentrations of detergents) to the membrane concentration required. In general, the binding assay was performed in a final volume of 40 μl: 20 μl of displacing ligand, 10 μl of fluorescent tracer, and 10 μl of diluted receptor membrane preparation (3.6-4.2 ug protein/well depending on the assay), which were added sequentially. The reaction was incubated at room temperature for 0.5-24 h before FP was measured depending on each experiment.
FP binding data were analyzed and fitted using GraphPad Prism® software (GraphPad Software, Inc., San Diego, Calif.). Competitive binding data was fit to a one-site competitive binding equation using nonlinear regression curve fitting. IC50 values were determined by nonlinear regression analysis of the inhibition curves. Data points in the displacement curves and in the graphs of DMSO, nonionic detergents, Chicago Sky Blue 6B and tartrazine consist of an average of 4-6 repetitions. All error bars represent ±1 standard deviation unit of the spread of the data except for displacement curves, where the error bars represent ±SEM. mP is defined by the following equation: mP=1000×(I∥−I⊥)/(I∥+I⊥) where mP=milli-polarization, I∥=parallel component of the emitted light, and I⊥=perpendicular component of the emitted light. Assay precision was assessed by calculating the Z′ value: Z′=1−[(3*σbound)+(3*σdisplaced)/|(mPbound−mPdisplaced)|] where σ is the standard deviation in the signal, mP: the subscript “bound” corresponds to the signal obtained in the absence of a displacing substance; and the subscript “displaced” corresponds to the signal of a completely displaced ligand (Zhang, J-H. et al., J. Biomol. Screen., (1999) 4, 67-73; Banks, P. et al., J. Biomol. Screen., (2002) 7, 111-117). The denominator of the equation calculates the specific binding expressed in the absolute value of mP difference, and the numerator calculates the precision in both bound and displaced signals. Background correction was done after each analysis by subtracting blank parallel and perpendicular intensities from the respective intensities. According to Z′ value model, the Z′ values of above 0.5 indicate excellent assays.

[2] = molecular target: T2, human NPFF2 receptor membranes (Homo sapiens, UniProt Q9Y5X5); experiment: In vitro functional FP assay with GDP and GTPγS (GTP binding assay); assay type: biochemical; details: one agonist fixed at 2-3×IC50, other ligand varied; 3 μM GDP and 5 μM GTPγS
T2 construct: purchased Euroscreen s.a; (Brussels, Belgium)
T2 sequence (Q9Y5X5 whole entry): as above
Method: The binding assay was performed in a final volume of 40 μl as follows: 10 μl of different concentrations of displacing ligand, 10 μl of tracer, and 10 μl of diluted receptor membrane preparation (3.6-4.2 ug protein/well), which were added sequentially. After 15 min, 10 μl of the binding buffer with 3-10 μM GDP and 5-50 μM GTPγS was added. The reaction was incubated at room temperature for 15-120 min.
The concentrations of the other agonist increased from 0.0019 nM to 9.0 μM per well.
Next a combination of an agonist with a fixed concentration and an antagonist with varying concentrations was tested under the same conditions.

human NPFF2 receptor [3] = molecular target: T1, human NPFF2 receptor; details: data from Eur. J. Pharmacol. 451: 245-256 (2002); read-out: [125I]Ligand Filtration Human Ki (c); cited from earlier work
human NPFF2 receptor [4] = molecular target: T1, human NPFF2 receptor; details: data from J. Biol. Chem. 275: 39324-39331 (2000); read-out: [125I]Ligand Filtration Human Ki (b); cited from earlier work

Ki (human NPFF2 receptor [1]) [nM] | Ki for inhibiting TAMRA-NPFF binding (in words) (human NPFF2 receptor [1]) | Compound | Ki (human NPFF2 receptor [3]) [nM] | Ki (human NPFF2 receptor [4]) [nM] | affinity to the TAMRA-NPFF binding site / binding to NPFF2 receptor (human NPFF2 receptor [1]) | other results
96 ± 13 |  | NC(N)=NCCC[C@@H](NC(=O)C(c1ccccc1)c1ccccc1)C(=O)NCc1ccc(O)cc1 [BIBP3226] | 84 ± 12 | 1260 ± 111 |  | affinity state in in vitro functional assays [2]: monophasic affinity state
0.46 ± 0.05 |  | CC(C)C[C@H](NC(=O)[C@H](N)Cc1ccc(O)cc1)C(=O)N(C)[C@@H](Cc1ccccc1)C(=O)N[C@@H](CCC(N)=O)C(=O)N1CCC[C@H]1C(=O)N[C@@H](CCC(N)=O)C(=O)N[C@@H](CCCN=C(N)N)C(=O)N[C@@H](Cc1ccccc1)C(N)=O [[D-Tyr^1(NMe)Phe^3]NPFF, [D-Tyr^1, (N-Me)Phe^3]NPFF] (H-[dY]L[NMeF]QPQRF-NH2) | 0.18 ± 0.04 |  |  | 
 | nanomolar range | CC(C)C[C@H](NC(=O)[C@H](N)Cc1ccc(O)cc1)C(=O)N(C)[C@@H](Cc1ccccc1)C(=O)N[C@@H](CCC(N)=O)C(=O)N1CCC[C@H]1C(=O)N[C@@H](CCC(N)=O)C(=O)N[C@@H](CCCNC(=N)N)C(=O)N[C@@H](Cc1ccccc1)C(N)=O [[D-Tyr^1(NMe)Phe^3]NPFF, [D-Tyr^1, (N-Me)Phe^3]NPFF] (H-[dY]L[NMeF]QPQRF-NH2) |  |  |  | 
 |  | COc1cc(CNC(=O)CCCC/C=C/C(C)C)ccc1O [capsaicin] |  |  | little or no affinity | 
 |  | CC(COc1ccccc1)N(CCCl)Cc1ccccc1 (stereo not drawn) [phenoxybenzamine] |  |  | little or no affinity | 
 | nanomolar range | APSEPHHPGDQATQDQLAQYYSDLYQYITFVTRPRF-NH2 [Frog PP] |  | 40 ± 11 |  | assay window (FIG. 8) (human NPFF2 receptor [1]; 0.1% trifluoroacetic acid added to assay buffer): 100 mP
